Results taken from ChEMBL document CHEMBL1150573, “Three new triterpenes from the seeds of Combretum quadrangulare and their hepatoprotective activity” (J Nat Prod, 2001).
The source made the active and inactive calls. No cut-off for these calls is given here.

Columns and labels:
Hepatocyte [1] = assay: Hepatoprotective activity against D-galactosamine/TNFalpha-induced cell death in primary cultured mouse hepatocytes treated for 30 mins before TNFalpha challenge measured after 18 hrs by MTT assay; assay type: functional, cell-based
Hepatocyte [2] = assay: Hepatoprotective activity against D-galactosamine/TNFalpha-induced cell death in primary cultured mouse hepatocytes at 50 uM treated for 30 mins before TNFalpha challenge measured after 18 hrs by MTT assay relative to control; assay type: functional
Hepatocyte [3] = assay: Hepatoprotective activity against D-galactosamine/TNFalpha-induced cell death in primary cultured mouse hepatocytes at 25 uM treated for 30 mins before TNFalpha challenge measured after 18 hrs by MTT assay relative to control; assay type: functional
Hepatocyte [4] = assay: Hepatoprotective activity against D-galactosamine/TNFalpha-induced cell death in primary cultured mouse hepatocytes assessed as cell viability at 25 uM treated for 30 mins before TNFalpha challenge measured after 18 hrs by MTT assay relative to normal hepatocytes; assay type: functional; settings: read-out: Activity
Hepatocyte [5] = assay: Hepatoprotective activity against D-galactosamine/TNFalpha-induced cell death in primary cultured mouse hepatocytes assessed as cell viability at 50 uM treated for 30 mins before TNFalpha challenge measured after 18 hrs by MTT assay relative to normal hepatocytes; assay type: functional; settings: read-out: Activity
Hepatocyte [6] = assay: Hepatoprotective activity against D-galactosamine/TNFalpha-induced cell death in primary cultured mouse hepatocytes at 100 uM treated for 30 mins before TNFalpha challenge measured after 18 hrs by MTT assay relative to control; assay type: functional
Hepatocyte [7] = assay: Hepatoprotective activity against D-galactosamine/TNFalpha-induced cell death in primary cultured mouse hepatocytes assessed as cell viability at 100 uM treated for 30 mins before TNFalpha challenge measured after 18 hrs by MTT assay relative to normal hepatocytes; assay type: functional; settings: read-out: Activity

C[C@H]1[C@H](C)CC[C@]2(C(=O)O[C@@H]3O[C@H](CO)[C@@H](O)[C@H](O)[C@H]3O)CC[C@]3(C)C(=CC[C@@H]4[C@@]5(C)C[C@@H](O)[C@H](O)[C@@](C)(CO)[C@@H]5CC[C@]43C)[C@H]12
Activity (Hepatocyte [1]): inactive

CC1(C)CC[C@]2(C(=O)O)CC[C@]3(C)C(=CC[C@@H]4[C@@]5(C)C[C@@H](O)[C@H](O)[C@@](C)(CO)[C@@H]5CC[C@]43C)[C@@H]2C1 [ARJUNOLIC ACID]
inhibition at 50 µM (Hepatocyte [2]): 33.8% | inhibition at 25 µM (Hepatocyte [3]): 19.1% | viability at 25 µM (Hepatocyte [4]): 24.9% | viability at 50 µM (Hepatocyte [5]): 28% | inhibition at 100 µM (Hepatocyte [6]): 108% | IC50 (Hepatocyte [1]): 58.4 µM | viability at 100 µM (Hepatocyte [7]): 43.6%

C=C(C)[C@@H]1CC[C@]2(C(=O)O)CC[C@]3(C)[C@H](CC[C@@H]4[C@@]5(C)C[C@@H](O)[C@H](O)C(C)(C)[C@@H]5[C@H](O)C[C@]43C)[C@@H]12
inhibition at 50 µM (Hepatocyte [2]): 35.8% | inhibition at 25 µM (Hepatocyte [3]): 5.9% | viability at 25 µM (Hepatocyte [4]): 22.2% | viability at 50 µM (Hepatocyte [5]): 28.4% | inhibition at 100 µM (Hepatocyte [6]): 128% | IC50 (Hepatocyte [1]): 60.9 µM | viability at 100 µM (Hepatocyte [7]): 47.6%

COc1cc(C2Oc3cc([C@H]4Oc5cc(O)cc(O)c5C(=O)[C@@H]4O)ccc3OC2CO)ccc1O (stereo not given in full) [SILIBININ]
inhibition at 50 µM (Hepatocyte [2]): 68.2% | inhibition at 25 µM (Hepatocyte [3]): 44.9% | viability at 25 µM (Hepatocyte [4]): 30.2% | viability at 50 µM (Hepatocyte [5]): 35.1% | inhibition at 100 µM (Hepatocyte [6]): 129% | IC50 (Hepatocyte [1]): 29.9 µM | viability at 100 µM (Hepatocyte [7]): 47.9%

C=C(C)[C@@H]1CC[C@]2(C(=O)O)CC[C@]3(C)[C@H](CC[C@@H]4[C@@]5(C)C[C@@H](O)[C@H](O)[C@@](C)(CO)[C@@H]5[C@H](O)C[C@]43C)[C@@H]12
inhibition at 50 µM (Hepatocyte [2]): 46.2% | inhibition at 25 µM (Hepatocyte [3]): 36.4% | viability at 25 µM (Hepatocyte [4]): 28.6% | viability at 50 µM (Hepatocyte [5]): 30.6% | inhibition at 100 µM (Hepatocyte [6]): 71.7% | IC50 (Hepatocyte [1]): 51.2 µM | viability at 100 µM (Hepatocyte [7]): 36%

CC1(C)[C@@H](O[C@H]2O[C@H](C(=O)O)[C@@H](O)[C@H](O)[C@H]2O[C@@H]2O[C@H](C(=O)O)[C@@H](O)[C@H](O)[C@H]2O)CC[C@]2(C)[C@H]3C(=O)C=C4[C@@H]5C[C@@](C)(C(=O)O)CC[C@]5(C)CC[C@@]4(C)[C@]3(C)CC[C@@H]12 [GLYCYRRHIZIN]
IC50 (Hepatocyte [1]): > 200 µM

C[C@@H]1CC[C@]2(C(=O)O)CC[C@]3(C)C(=CC[C@@H]4[C@@]5(C)C[C@@H](O)[C@H](O)[C@@](C)(CO)[C@@H]5CC[C@]43C)[C@@H]2[C@]1(C)O
Activity (Hepatocyte [1]): inactive

CC1(C)CC[C@]2(C(=O)O)CC[C@]3(C)C(=CC[C@@H]4[C@@]5(C)C[C@@H](O)[C@H](O)C(C)(C)[C@@H]5[C@H](O)C[C@]43C)[C@@H]2[C@@H]1O
inhibition at 50 µM (Hepatocyte [2]): 18% | inhibition at 25 µM (Hepatocyte [3]): 15.4% | viability at 25 µM (Hepatocyte [4]): 24.2% | viability at 50 µM (Hepatocyte [5]): 24.7% | inhibition at 100 µM (Hepatocyte [6]): 24.4% | viability at 100 µM (Hepatocyte [7]): 26.1%

C[C@@H]1CC[C@]2(C(=O)O[C@@H]3O[C@H](CO)[C@@H](O)[C@H](O)[C@H]3O)CC[C@]3(C)C(=CC[C@@H]4[C@@]5(C)C[C@@H](O)[C@H](O)[C@@](C)(CO)[C@@H]5CC[C@]43C)[C@@H]2[C@]1(C)O
Activity (Hepatocyte [1]): inactive

CC1(C)CC[C@]2(C(=O)O)CC[C@]3(C)C(=CC[C@@H]4[C@@]5(C)C[C@@H](O)[C@H](O)C(C)(C)[C@@H]5CC[C@]43C)[C@@H]2[C@@H]1O [ARJUNIC ACID]
inhibition at 50 µM (Hepatocyte [2]): 27% | inhibition at 25 µM (Hepatocyte [3]): 26.7% | viability at 25 µM (Hepatocyte [4]): 26.5% | viability at 50 µM (Hepatocyte [5]): 26.6% | inhibition at 100 µM (Hepatocyte [6]): 32.9% | viability at 100 µM (Hepatocyte [7]): 27.8%

C=C(C)[C@@H]1CC[C@]2(C(=O)O[C@@H]3O[C@H](CO)[C@@H](O)[C@H](O)[C@H]3O)CC[C@]3(C)[C@H](CC[C@@H]4[C@@]5(C)C[C@@H](O)[C@H](O)C(C)(C)[C@@H]5[C@H](O)C[C@]43C)[C@@H]12
Activity (Hepatocyte [1]): Active

CC1=C2C3=CC[C@@H]4[C@@]5(C)C[C@@H](O)[C@H](O)[C@@](C)(CO)[C@@H]5CC[C@@]4(C)[C@]3(C)CC[C@@]2(C(=O)O)CC[C@H]1C
inhibition at 50 µM (Hepatocyte [2]): 47.4% | inhibition at 25 µM (Hepatocyte [3]): 40.6% | viability at 25 µM (Hepatocyte [4]): 29.4% | viability at 50 µM (Hepatocyte [5]): 30.8% | inhibition at 100 µM (Hepatocyte [6]): 150% | IC50 (Hepatocyte [1]): 51 µM | viability at 100 µM (Hepatocyte [7]): 51.5%

CC[C@H](CC[C@@H](C)[C@H]1CC[C@H]2[C@@H]3CC=C4C[C@@H](O)CC[C@]4(C)[C@H]3CC[C@]12C)C(C)C [BETA-SITOSTEROL]
inhibition at 50 µM (Hepatocyte [2]): 28.1% | inhibition at 25 µM (Hepatocyte [3]): 17.7% | viability at 25 µM (Hepatocyte [4]): 24.3% | viability at 50 µM (Hepatocyte [5]): 26.4% | inhibition at 100 µM (Hepatocyte [6]): 32.5% | viability at 100 µM (Hepatocyte [7]): 27.3%

C=C(C)[C@@H]1CC[C@]2(C(=O)O[C@@H]3O[C@H](CO)[C@@H](O)[C@H](O)[C@H]3O)CC[C@]3(C)[C@H](CC[C@@H]4[C@@]5(C)C[C@@H](O)[C@H](O)[C@@](C)(CO)[C@@H]5[C@H](O)C[C@]43C)[C@@H]12
Activity (Hepatocyte [1]): Active

CC1=C2C3=CC[C@@H]4[C@@]5(C)C[C@@H](O)[C@H](O)[C@@](C)(CO)[C@@H]5[C@H](O)C[C@@]4(C)[C@]3(C)CC[C@@]2(C(=O)O[C@@H]2O[C@H](CO)[C@@H](O)[C@H](O)[C@H]2O)CC[C@H]1C
Activity (Hepatocyte [1]): Active
